Assay results published in ChEMBL document CHEMBL5352384, “Identification of new FK866 analogues with potent anticancer activity against pancreatic cancer” (Eur J Med Chem, 2022).
The source made the active and inactive calls. The rule behind the calls is not given here.

How the values were obtained:
[1] = tested on: Jurkat; assay: Antiproliferative activity against human Jurkat cells assessed as inhibition of cell growth measured after 72 hrs by XTT assay; assay type: functional, cell-based
[2] = tested on: Jurkat; assay: Induction of apoptosis in human Jurkat cells assessed as cell death at upto 1000 nM measured after 96 hrs by annexin V and 7AAD double staining based flow cytometry analysis; assay type: functional
[3] = tested on: Jurkat; assay: Induction of apoptosis in human Jurkat cells assessed as caspase-3 cleavage at 10 nM measured after 96 hrs by flow cytometry analysis; assay type: functional, cell-based
[4] = tested on: BXPC-3; assay: Antiproliferative activity against human BXPC-3 cells assessed as inhibition of cell growth measured after 72 hrs by XTT assay; assay type: functional, cell-based; conditions: BXPC-3, 72 h
[5] = tested on: Jurkat; assay: Antiproliferative activity against human Jurkat cells assessed as reduction in cell viability at 10 nM incubated for 96 hrs in presence of NAD+ by annexin V and 7AAD double staining based flow cytometry analysis; assay type: functional
[6] = tested on: PANC-1; assay: Antiproliferative activity against human PANC-1 cells assessed as inhibition of cell growth measured after 72 hrs by XTT assay; assay type: functional, cell-based; conditions: PANC-1, 72 h
[7] = tested on: Jurkat; assay: Antiproliferative activity against human Jurkat cells assessed as reduction in cell viability at 10 nM incubated for 96 hrs in presence of NMN by annexin V and 7AAD double staining based flow cytometry analysis; assay type: functional
[8] = tested on: MIA PaCa-2; assay: Antiproliferative activity against human MIA PaCa-2 cells assessed as inhibition of cell growth measured after 72 hrs by XTT assay; assay type: functional, cell-based; conditions: MIA PaCa-2, 72 h
[9] = tested on: PANC-1; assay: Cytotoxicity against human PANC-1 cells assessed as reduction in cell viability measured after 72 hrs by resazurin staining based fluorescent plate reader; assay type: functional; conditions: PANC-1, 72 h

O=C(/C=C/c1cccnc1)NCCCCC1CCN(C(=O)CCc2ccccc2)CC1 gave an IC50 [1] of 28 nM.

CC(=O)c1cccc(C(=O)N2CCC(CCCCNC(=O)/C=C/c3cccnc3)CC2)c1 gave an IC50 [1] of 850 nM.

For O=C(/C=C/c1cccnc1)NC/C=C/C1CCN(C(=O)c2ccccc2)CC1, the IC50 [1] was 100 nM.

In the case of COc1cccc(OC)c1C(=O)N1CCC(CCCCNC(=O)/C=C/c2cccnc2)CC1, the Activity [2] is reported as “Active”, the Activity [3] is reported as “Active” and the IC50 [4] is reported as 0.004 nM. The Activity [5] was “inactive”, the IC50 [6] was 0.6 nM and the IC50 [1] was 0.8 nM. For the same compound, the Activity [7] was “inactive” and the IC50 [8] was 0.5 nM.

COc1cc(C(=O)N2CCC(CCCCNC(=O)/C=C/c3cccnc3)CC2)cc(OC)c1OC showed an IC50 [1] of 10 nM.

With O=C(/C=C/c1cccnc1)NCCCCC1CCN(C(=O)C2CCC(=O)N2)CC1 (centres undefined) the IC50 [1] was 350 nM.

O=C(/C=C/c1cnccn1)NCCCCC1CCN(C(=O)c2ccccc2)CC1 showed an IC50 [1] of over 1000 nM.

O=C(/C=C/c1cccnc1)NC/C=C/CC1CCN(C(=O)c2ccccc2)CC1 showed an IC50 [4] of 34 nM, an IC50 [6] of 8.6 nM and an IC50 [1] of 10 nM. It also gave an IC50 [8] of 13 nM.

Compound O=C(NCCCc1cn[nH]c1)c1ccc(-c2ccncc2)c(C#Cc2ccc(F)cc2)c1 has an EC50 [9] of 3.5 nM.

In the case of O=Cc1cccc(C(=O)N2CCC(CCCCNC(=O)/C=C/c3cccnc3)CC2)c1, the IC50 [1] is reported as 40 nM.

O=C(/C=C/c1ccc[n+]([O-])c1)NCCCCC1CCN(C(=O)c2ccccc2)CC1 gave an IC50 [1] of 100 nM.

For COc1cccc(OC)c1C(=O)N1CCC(CCCCNC(=O)/C=C/c2ccc(F)nc2F)CC1, the IC50 [6] was 2 nM, the IC50 [1] was 73 nM and the IC50 [8] was 75 nM.

For COc1ccc(C(=O)N2CCC(CCCCNC(=O)/C=C/c3cccnc3)CC2)cc1OC, the IC50 [1] was 32 nM.

Work on O=C(/C=C/c1cccnc1)NCCCCC1CCN(C(=O)C2CCCOC2)CC1 (centres undefined) yielded an IC50 [1] of 35 nM.

For COc1cc(OC)c(C(=O)N2CCC(CCCCNC(=O)/C=C/c3cccnc3)CC2)c(OC)c1, the Activity [2] was “Active”, the Activity [3] was “Active” and the IC50 [4] was 1.7 nM. For the same compound, the Activity [5] was “inactive”, the IC50 [6] was 0.9 nM and the IC50 [1] was 1 nM. The Activity [7] was “inactive” and the IC50 [8] was 0.16 nM.

Work on O=C(/C=C/c1cccnc1)NCCCCC1CCN(C(=O)c2ccc([N+](=O)[O-])cc2)CC1 yielded an IC50 [1] of 68 nM.

Compound O=C(/C=C/c1cccnc1)NCCCCC1CCN(C(=O)/C=C/c2ccccc2)CC1 has an IC50 [1] of 36 nM.

O=C(/C=C/c1ccc(F)nc1F)NCCCCC1CCN(C(=O)c2ccccc2)CC1 showed an IC50 [4] of 31 nM, an IC50 [6] of 14 nM and an IC50 [1] of 6.7 nM. It also gave an IC50 [8] of 13.5 nM.

With COc1ccc(OC)c(C(=O)N2CCC(CCCCNC(=O)/C=C/c3cccnc3)CC2)c1 the IC50 [4] was 13 nM, the IC50 [6] was 2.8 nM and the IC50 [1] was 4.3 nM. For the same compound, the IC50 [8] was 3.9 nM.

O=C(/C=C/c1cccnc1)NCCCCC1CCN(C(=O)C2CCCCO2)CC1 (centres undefined) was tested, and the IC50 [1] was 50 nM.

With O=C(/C=C/c1cccnc1)NCCCCC1CCN(C(=O)Cc2ccccc2)CC1 the IC50 [1] was 18 nM.

Work on O=C(/C=C/c1cccnc1)NCCCOC1CCN(C(=O)c2ccccc2)CC1 yielded an IC50 [1] of 800 nM.

O=C(/C=C/c1cccnc1)NCCCCC1CCN(C(=O)c2ccc(C(F)(F)F)cc2)CC1 gave an IC50 [1] of over 1000 nM.

In the case of O=C(/C=C/c1cccnc1)NCCCCC1CCN(C(=O)c2ccccc2)CC1 [DAPORINAD], the Activity [2] is reported as “Active”, the Activity [3] is reported as “Active” and the IC50 [4] is reported as 0.3 nM. It also gave an IC50 [6] of 0.6 nM, an IC50 [1] of 0.6 nM and an IC50 [8] of 2.2 nM.

With COc1ccc(C(=O)N2CCC(CCCCNC(=O)/C=C/c3cccnc3)CC2)cc1 the IC50 [1] was 100 nM.

For O=C(/C=C/c1cccnc1)NCC1OC1CC1CCN(C(=O)c2ccccc2)CC1 (centres undefined), the IC50 [1] was 2500 nM.

COc1cccc(OC)c1C(=O)N1CCC(CCCCNC(=O)/C=C/c2ccnnc2)CC1 gave an IC50 [4] of 15.6 nM, an IC50 [1] of 35 nM and an IC50 [8] of 25 nM.

Work on COc1cccc(OC)c1C(=O)N1CCC(C/C=C/CNC(=O)/C=C/c2cccnc2)CC1 yielded an IC50 [4] of 0.4 nM, an IC50 [6] of 2.3 nM and an IC50 [1] of 5 nM. The IC50 [8] was 2.7 nM.

For O=C(/C=C/c1cccnc1)NCCCCC1CCN(C(=O)c2ccc(CO)cc2)CC1, the IC50 [1] was 34 nM.

O=C(/C=C/c1cccnc1)NCCCCC1CCN(C(=O)C2CCCCC2)CC1 was tested, and the IC50 [1] was 32 nM.

Work on COc1cc(C=O)cc(OC)c1C(=O)N1CCC(CCCCNC(=O)/C=C/c2cccnc2F)CC1 yielded an IC50 [4] of 53 nM, an IC50 [6] of 16 nM and an IC50 [1] of 0.8 nM. For the same compound, the IC50 [8] was 3 nM.

COc1cccc(OC)c1C(=O)N1CCC(CCCCNC(=O)/C=C/c2cnccn2)CC1 was tested, and the IC50 [1] was over 1000 nM.

Work on COc1cccc(OC)c1C(=O)N1CCC(OCCCNC(=O)/C=C/c2cccnc2)CC1 yielded an IC50 [1] of 850 nM.

Work on Cc1ccc(S(=O)(=O)N2CCC(CCCCNC(=O)/C=C/c3cccnc3)CC2)cc1 yielded an IC50 [1] of 400 nM.

With O=C(/C=C/c1cccnc1)NCCCCC1CCN(S(=O)(=O)c2ccccc2)CC1 the IC50 [1] was 16 nM.

For COc1ccc(C(=O)N2CCC(CCCCNC(=O)/C=C/c3cccnc3)CC2)c(OC)c1OC, the IC50 [1] was 28 nM.

In the case of COc1cccc(C(=O)N2CCC(CCCCNC(=O)/C=C/c3cccnc3)CC2)c1OC, the Activity [2] is reported as “Active”, the Activity [3] is reported as “Active” and the IC50 [4] is reported as 25 nM. The Activity [5] was “inactive”, the IC50 [6] was 3.2 nM and the IC50 [1] was 3.6 nM. For the same compound, the Activity [7] was “inactive” and the IC50 [8] was 4.5 nM.

In the case of COc1ccc(C(=O)N2CCC(CCCCNC(=O)/C=C/c3cccnc3)CC2)c(OC)c1, the IC50 [4] is reported as 24 nM, the IC50 [6] is reported as 0.2 nM and the IC50 [1] is reported as 8.4 nM. It also gave an IC50 [8] of 4 nM.

Work on O=C(/C=C/c1cccnc1)NCCCCC1CCN(C(=O)C2CCCO2)CC1 (centres undefined) yielded an IC50 [1] of 30 nM.

For O=C(/C=C/c1cccnc1)NCCCCC1CCN(C(=O)C2CCOCC2)CC1, the IC50 [1] was 30 nM.

CC(=O)c1ccc(C(=O)N2CCC(CCCCNC(=O)/C=C/c3cccnc3)CC2)cc1 gave an IC50 [1] of 800 nM.

O=C(/C=C/c1cccnc1)NCC(O)CCC1CCN(C(=O)c2ccccc2)CC1 (centres undefined) was tested, and the IC50 [1] was 3500 nM.

Work on O=C(/C=C/c1cccnc1F)NCCCCC1CCN(C(=O)c2ccccc2)CC1 yielded an IC50 [1] of 2.3 nM and an IC50 [8] of 4 nM.

O=C(/C=C/c1cccnc1)NCCC1CCN(C(=O)c2ccccc2)CC1 gave an IC50 [1] of over 200 nM.

O=C(/C=C/c1cccnc1Cl)NCCCCC1CCN(C(=O)c2ccccc2)CC1 was tested, and the IC50 [1] was 2500 nM.

Compound O=Cc1ccc(C(=O)N2CCC(CCCCNC(=O)/C=C/c3cccnc3)CC2)cc1 has an IC50 [1] of 20 nM.

For COc1cccc(C(=O)N2CCC(CCCCNC(=O)/C=C/c3cccnc3)CC2)c1, the IC50 [1] was 9 nM.

COc1cc(C=O)cc(OC)c1C(=O)N1CCC(CCCCNC(=O)/C=C/c2cccnc2)CC1 gave an IC50 [4] of 13 nM, an IC50 [6] of 1.9 nM and an IC50 [1] of 0.4 nM. For the same compound, the IC50 [8] was 0.25 nM.

COc1cc(OC)c(C(=O)N2CCC(C/C=C/CNC(=O)/C=C/c3cccnc3)CC2)c(OC)c1 gave an IC50 [4] of 2.8 nM, an IC50 [6] of 0.4 nM and an IC50 [1] of 3 nM. It also gave an IC50 [8] of 0.8 nM.

Compound O=C(/C=C/c1cccnc1)NCCCCC1CCN(C(=O)c2ccccc2O)CC1 has an IC50 [4] of 8.1 nM, an IC50 [6] of 1.3 nM and an IC50 [1] of 5.8 nM. The IC50 [8] was 3.9 nM.

Compound O=C(/C=C/c1ccc(Cl)nc1Cl)NCCCCC1CCN(C(=O)c2ccccc2)CC1 has an IC50 [1] of 2500 nM.

For COc1cccc(OC)c1C(=O)N1CCC(CCCCNC(=O)/C=C/c2cccnc2F)CC1, the IC50 [6] was 5.7 nM, the IC50 [1] was 6.5 nM and the IC50 [8] was 24 nM.

For O=C(/C=C/c1ccnnc1)NCCCCC1CCN(C(=O)c2ccccc2)CC1, the IC50 [4] was 19.4 nM, the IC50 [1] was 33 nM and the IC50 [8] was 69 nM.

Compound O=C(/C=C/c1cccnc1)NCCCCC1CCN(C(=O)c2ccc(F)cc2)CC1 has an IC50 [1] of 10 nM.

COc1ccccc1C(=O)N1CCC(CCCCNC(=O)/C=C/c2cccnc2)CC1 was tested, and the Activity [2] was “Active”, the Activity [3] was “Active” and the IC50 [4] was 0.5 nM. The Activity [5] was “inactive”, the IC50 [6] was 0.08 nM and the IC50 [1] was 2.3 nM. For the same compound, the Activity [7] was “inactive” and the IC50 [8] was 1 nM.
